Measured values as given in EP2724723A1, “Tegaserod for use in the treatment of nerve injuries” (Universitätsklinikum Hamburg-Eppendorf, priority 2012, dated 2014).

How the values were obtained:
[1] = test system: 2 mm femoral nerve defect; test: Femoral nerve regeneration: locomotor recovery (FBA, PLR, recovery index); format: in vivo, C57BL/6J mice; details: for average FBA (foot base angle): end of the 15-week study, control group 93 degrees
Excerpt: Briefly, mice were anesthetized and the femoral nerve of the left rear leg exposed. The nerve was bis-sected 3 mm proximal to the branching of the saphenous and motor branches, and the nerve ends were sutured 0.5 mm into a 3 mm polyethylene conduits with 0.58 mm inner diameter (Becton Dickinson), leaving an overall gap length of 2 mm.
The FBA measures the angle between the hind paw and a beam as the mouse is pushing and bearing weight with the foot of the injured limb.
FBA is governed largely by the quadriceps muscle, the major muscular innervation target of the femoral nerve. Mice were trained to walk on a beam for 2 weeks prior to surgery and single frame video motion analysis (Simi Reality Motion Systems, Simi Sportsplayer) was used to quantify the angle between the beam and the foot when the toes from the left leg are fully extended.
As a complement to assessment of the FBA that measures a weight-bearing reflexive movement, the protraction limb ratio (PLR) is indicative of voluntary movement of the hind limb. […] Mice are suspended by the tail above a pencil and allowed to grasp the pencil. The PLR is measured by dividing the relative length that the uninjured hind leg extends to the pencil by the length that the injured hind limb extends.
To account for any variability between animals, an index is calculated that takes into account the initial FBA and PLR of animals prior to surgery. The recovery index is calculated by the equation: RI= (Xday y-Xday 1wk)/(Xday 0-Xday 7) x 100, where Xday0 is the measurement before injury, Xday 1wk is the measurement one week after injury, and Xday y is the measurement at the study endpoint. An RI value 100 indicates complete recovery of function.

[2] = test system: murine cerebellar granule neurons (cGNs), Schwann cells, and motoneurons; test: In vitro neurite/process outgrowth, statements covering all cell types; format: cell-based, C57BL/6J mice
Procedure: (§1) Primary cultures of cerebellar neurons or Schwann cells were prepared from cerebellum or dorsal root ganglia of 7-day-old C57BL/6J mice as described in Mehanna et al. (2009), Brain, 132 (Pt 6): 1449-62 and Loers et al. (2005), J. Neurochem., 92(6): 1463-76. Motoneurons were prepared from E14 C57BL/6J mice as described in Simova et al. (2006), Ann. Neurol., 60(4): 430-437. In brief, 48-well plates were coated with 0.01% poly-L-lysine (PLL) or poly-L-ornithine (PLO) overnight at 4°C, washed twice with water and air-dried. Directly before use, plates were washed twice with PBS, and Schwann cells, cerebellar neurons (PLL) or motoneurons (PLO) were seeded at a density of 1.25 x 10^4 (Schwann cells and motoneurons) or 2.5 x 10^4 cells (cerebellar neurons) per well in 250 µl of corresponding serum-free culture medium. Soluble organic compounds were added to the culture 1 h after seeding in increasing concentrations. After maintenance for 24 h at 37°C, cells were fixed with 2.5% glutaraldehyde and stained with 1% methylene blue/toluidine blue in 1% borax. Morphological quantification of neurite or process lengths was performed as described in Mehanna et al. (2009), see above. Schwann cell processes and neurites of cerebellar neurons with a length of at least one cell body diameter were counted and total neurite or process length per cell was determined by counting 50 cells in each of two wells per experiment. At least three independent experiments were performed for each culture. Also, the activity of tegaserod with the PSA peptide mimic and the bacterial PSA analogue, colominic acid, on neurite and process extension experiments was compared.

[3] = test system: regenerated femoral nerves; test: Histology of the regenerated femoral nerve; format: in vivo, C57BL/6J mice; details: 15 weeks; for myelinated axons: vehicle control 78%; for average number of axons within regenerated nerves: vehicle control 432, unsevered 608
Procedure: Tegaserod was evaluated in a 2 mm femoral nerve defect of 12-week old C57BL/6J mice as previously described in Mehanna et al. (2009), see above. Briefly, mice were anesthetized and the femoral nerve of the left rear leg exposed. The nerve was bis-sected 3 mm proximal to the branching of the saphenous and motor branches, and the nerve ends were sutured 0.5 mm into a 3 mm polyethylene conduits with 0.58 mm inner diameter (Becton Dickinson), leaving an overall gap length of 2 mm. Conduits were filled with PuraMatrix peptide hydrogel (Becton Dickinson 354250) using 2x PBS as the gelation stimulant. Tegaserod was dissolved in the 2x PBS at concentrations of 500 nM and 5,000 nM, resulting in final concentrations of 250 nM and 2,500 nM once the PBS was combined 1:1 v/v with the PuraMatrix.
At the end of the recovery period, femoral nerves were fixed and histology was performed to assess nerve morphology within the regenerated region 1 mm into the 2 mm gap. Animals were perfused with 4% paraformadehyde and explanted nerves were post-fixed in osmium tetroxide and embedded in resin. One and 2 µm thick sections were cut into the center of the regenerated nerve and sections were stained with 1% toluidine blue and 1% borax. Sections were imaged with a Zeiss Axiocam, using 20x, 40x, and 100x objectives and AxioVision imaging software. ImageJ software was used to calculate total nerve area, number of axons, % of myelinated axons, and g-ratio as described Mehanna et al. (2009), see above.

[4] = test system: motoneurons isolated from NCAM^-/- mice; test: In vitro neurite outgrowth of NCAM-deficient motoneurons; format: cell-based; details: tegaserod 100 nM; colominic acid 3 µM; PSA mimicking peptide 30 µM; Figure 2B
Procedure: as §1, with “After maintenance for 24 h at 37°C, cells were fixed with 2.5% glutaraldehyde and stained with 1% methylene blue/toluidine blue in 1% borax.” left out, “At least three independent experiments were performed for each culture. Also, the activity of tegaserod with the PSA peptide mimic and the bacterial PSA analogue, colominic acid, on neurite and process extension experiments was compared.” left out

[H]/N=C(/NCCCCC)N/N=C/c1c[nH]c2ccc(OC)cc12 [tegaserod, (E)-but-2-enedioic acid; 1-[[(Z)-(5-methoxyindol-3-ylidene)methyl]amino]-2-pentylguanidine]
time after nerve injury at which sustained improvement of the FBA first became apparent ([1]; 250 nM in hydrogel conduit): 6 weeks
time at which FBA improvement became statistically significant from the vehicle control group ([1]; 250 nM in hydrogel conduit): 10 weeks
average FBA (foot base angle) ([1]; 250 nM in hydrogel conduit): 82 degrees
average recovery index (RI) for the FBA ([1]; 250 nM, 15 weeks, vehicle control 37%): 62%
time to return to pre-surgery PLR (protraction limb ratio) ([1]; 250 nM, vehicle control 8 weeks): ≤ 6 weeks
PLR versus other groups (in words) ([1]; 2,500 nM): remained consistently higher than the other two groups
FBA recovery versus vehicle control (in words) ([1]; 2,500 nM in hydrogel conduit): did not show statistically significant difference from vehicle control
average FBA (foot base angle) ([1]; 2,500 nM in hydrogel conduit): 87 degrees
recovery index (RI) for the FBA ([1]; 2,500 nM, 15 weeks, vehicle control 37%, considerable variation): 51%
RI of the PLR reached by the majority of mice ([1]; 2,500 nM, a single mouse did not recover): 100%
minimal effective concentration ([2]; Mus musculus, Neuron, 24 h, dose-response curve, Figure 2A, read-out: concentration at which an effect on neurite and process extension was shown): 0.001 µM
concentration of optimal effect on neurite and process extension ([2]; all cell types, Figure 2A): 100 nM
concentration of maximal stimulatory effects ([2]; neurite and process extension of neurons and Schwann cells): 10 to 250 nM
effect of overdosing / higher concentrations (in words) ([2]; neurons and Schwann cells): the stimulatory effect was reduced or even abolished
times more effective than colominic acid in stimulating process formation ([2]; neurons and Schwann cells): about 20 times
times more effective than the PSA mimicking peptide in stimulating process formation ([2]; neurons and Schwann cells): about 200 times
myelinated axons ([3]; 250 nM): 88%
average number of axons within regenerated nerves ([3]; 250 nM): 589 axons
myelinated axons ([3]; 2,500 nM): 83%
average number of axons within regenerated nerves ([3]; 2,500 nM): 434 axons
effect on neurite extension of NCAM^-/- motoneurons (in words) [4]: no enhancement in neurite extension
